Species: Rattus norvegicus
Assay: DrugMatrix - Regimen: Daily Repeat
Type: toxicity, organism-based, Sprague-Dawley
Set-up: regimen Daily Repeat, gender Male, age 6-8 weeks
Conditions: in vivo, po, route oral GAVAGE, vehicle .5 % CMC; for ABSOLUTE BASOPHIL / ABSOLUTE EOSINOPHIL / ABSOLUTE LYMPHOCYTE / ABSOLUTE MONOCYTE / ABSOLUTE SEGMENTED NEUTROPHIL / BASOPHIL / EOSINOPHIL / ERYTHROCYTE COUNT / HEMATOCRIT / HEMOGLOBIN / LEUKOCYTE COUNT / LYMPHOCYTE / MEAN CORPUSCULAR HEMOGLOBIN / MEAN CORPUSCULAR HEMOGLOBIN CONCENTRATION / MEAN CORPUSCULAR VOLUME / MONOCYTE / NEUTROPHIL / NUCLEATED RED BLOOD CELLS / PLATELET COUNT: tissue Blood; for ALANINE AMINOTRANSFERASE / ALBUMIN / ALKALINE PHOSPHATASE / ASPARTATE AMINOTRANSFERASE / BLOOD UREA NITROGEN / CARBON DIOXIDE / CHLORIDE / CHOLESTEROL / CREATINE PHOSPHOKINASE / CREATININE / GLUCOSE / LACTATE DEHYDROGENASE / LIPASE / PHOSPHORUS / POTASSIUM / SODIUM / TOTAL BILIRUBIN / TOTAL PROTEIN / URIC ACID: tissue Plasma
[1] = 0 mg/kg, 72 h, dose level Control, time 3 day
[2] = 0 mg/kg, 120 h, dose level Control, time 5 day
[3] = 20 mg/kg, 72 h, dose level Low, time 3 day
[4] = 20 mg/kg, 120 h, dose level Low, time 5 day

Clc1ccc2c(c1)C(N1CCNCC1)=Nc1ccccc1O2 [AMOXAPINE]
ABSOLUTE BASOPHIL [1]: 0 CELLS/uL | ABSOLUTE EOSINOPHIL [1]: 32.5 CELLS/uL | ABSOLUTE LYMPHOCYTE [1]: 13494.17 CELLS/uL | ABSOLUTE MONOCYTE [1]: 474 CELLS/uL | ABSOLUTE SEGMENTED NEUTROPHIL [1]: 1932.67 CELLS/uL | BASOPHIL [1]: 0% | EOSINOPHIL [1]: 0.17% | ERYTHROCYTE COUNT [1]: 5.45 x10E6/uL | HEMATOCRIT [1]: 34.32% | HEMOGLOBIN [1]: 13.82 G/DL | LEUKOCYTE COUNT [1]: 15.93 x10E3/uL | LYMPHOCYTE [1]: 84.83% | MEAN CORPUSCULAR HEMOGLOBIN [1]: 25.38 pg | MEAN CORPUSCULAR HEMOGLOBIN CONCENTRATION [1]: 40.27 G/DL | MEAN CORPUSCULAR VOLUME [1]: 63.05 fL | MONOCYTE [1]: 3% | NEUTROPHIL [1]: 12% | NUCLEATED RED BLOOD CELLS [1]: 0.67 /100WBC | PLATELET COUNT [1]: 1188.5 x10E3/uL | ALANINE AMINOTRANSFERASE [1]: 54.83 u/L | ALBUMIN [1]: 4.22 G/DL | ALKALINE PHOSPHATASE [1]: 427.67 u/L | ASPARTATE AMINOTRANSFERASE [1]: 86.5 u/L | BLOOD UREA NITROGEN [1]: 15.33 mg/dL | CARBON DIOXIDE [1]: 24.83 mmol/L | CHLORIDE [1]: 102.33 MEQ/L | CHOLESTEROL [1]: 71.67 mg/dL | CREATINE PHOSPHOKINASE [1]: 442.5 u/L | CREATININE [1]: 0.19 mg/dL | GLUCOSE [1]: 160.67 mg/dL | LACTATE DEHYDROGENASE [1]: 236.5 u/L | LIPASE [1]: 9 u/L | PHOSPHORUS [1]: 11.97 mg/dL | POTASSIUM [1]: 6.2 MEQ/L | SODIUM [1]: 142.85 MEQ/L | TOTAL BILIRUBIN [1]: 0.2 mg/dL | TOTAL PROTEIN [1]: 5.8 G/DL | URIC ACID [1]: 1.3 mg/dL | ABSOLUTE BASOPHIL [2]: 0 CELLS/uL | ABSOLUTE EOSINOPHIL [2]: 114.5 CELLS/uL | ABSOLUTE LYMPHOCYTE [2]: 14614 CELLS/uL | ABSOLUTE MONOCYTE [2]: 173 CELLS/uL | ABSOLUTE SEGMENTED NEUTROPHIL [2]: 1048.5 CELLS/uL | BASOPHIL [2]: 0% | EOSINOPHIL [2]: 0.67% | ERYTHROCYTE COUNT [2]: 5.66 x10E6/uL | HEMATOCRIT [2]: 35.52% | HEMOGLOBIN [2]: 14.27 G/DL | LEUKOCYTE COUNT [2]: 15.95 x10E3/uL | LYMPHOCYTE [2]: 91.33% | MEAN CORPUSCULAR HEMOGLOBIN [2]: 25.23 pg | MEAN CORPUSCULAR HEMOGLOBIN CONCENTRATION [2]: 40.2 G/DL | MEAN CORPUSCULAR VOLUME [2]: 62.7 fL | MONOCYTE [2]: 1.17% | NEUTROPHIL [2]: 6.83% | NUCLEATED RED BLOOD CELLS [2]: 0.33 /100WBC | PLATELET COUNT [2]: 1229 x10E3/uL | ALANINE AMINOTRANSFERASE [2]: 58.67 u/L | ALBUMIN [2]: 4.32 G/DL | ALKALINE PHOSPHATASE [2]: 382.5 u/L | ASPARTATE AMINOTRANSFERASE [2]: 81.67 u/L | BLOOD UREA NITROGEN [2]: 17.67 mg/dL | CARBON DIOXIDE [2]: 27.17 mmol/L | CHLORIDE [2]: 102.33 MEQ/L | CHOLESTEROL [2]: 63.67 mg/dL | CREATINE PHOSPHOKINASE [2]: 227.67 u/L | CREATININE [2]: 0.23 mg/dL | GLUCOSE [2]: 155.33 mg/dL | LACTATE DEHYDROGENASE [2]: 146.5 u/L | LIPASE [2]: 10.67 u/L | PHOSPHORUS [2]: 11.93 mg/dL | POTASSIUM [2]: 6.85 MEQ/L | SODIUM [2]: 143.95 MEQ/L | TOTAL BILIRUBIN [2]: 0.18 mg/dL | TOTAL PROTEIN [2]: 6.02 G/DL | URIC ACID [2]: 1.63 mg/dL | ABSOLUTE BASOPHIL [3]: 0 CELLS/uL | ABSOLUTE EOSINOPHIL [3]: 0 CELLS/uL | ABSOLUTE LYMPHOCYTE [3]: 12123 CELLS/uL | ABSOLUTE MONOCYTE [3]: 372 CELLS/uL | ABSOLUTE SEGMENTED NEUTROPHIL [3]: 1505 CELLS/uL | BASOPHIL [3]: 0% | EOSINOPHIL [3]: 0% | ERYTHROCYTE COUNT [3]: 5.61 x10E6/uL | HEMATOCRIT [3]: 34.6% | HEMOGLOBIN [3]: 13.67 G/DL | LEUKOCYTE COUNT [3]: 14 x10E3/uL | LYMPHOCYTE [3]: 86.67% | MEAN CORPUSCULAR HEMOGLOBIN [3]: 24.47 pg | MEAN CORPUSCULAR HEMOGLOBIN CONCENTRATION [3]: 39.53 G/DL | MEAN CORPUSCULAR VOLUME [3]: 61.9 fL | MONOCYTE [3]: 2.67% | NEUTROPHIL [3]: 10.67% | NUCLEATED RED BLOOD CELLS [3]: 0.33 /100WBC | PLATELET COUNT [3]: 1267.33 x10E3/uL | ALANINE AMINOTRANSFERASE [3]: 52 u/L | ALBUMIN [3]: 4.13 G/DL | ALKALINE PHOSPHATASE [3]: 425.33 u/L | ASPARTATE AMINOTRANSFERASE [3]: 87 u/L | BLOOD UREA NITROGEN [3]: 15.67 mg/dL | CARBON DIOXIDE [3]: 26.67 mmol/L | CHLORIDE [3]: 101.33 MEQ/L | CHOLESTEROL [3]: 69 mg/dL | CREATINE PHOSPHOKINASE [3]: 308 u/L | CREATININE [3]: 0.17 mg/dL | GLUCOSE [3]: 148.33 mg/dL | LACTATE DEHYDROGENASE [3]: 190.67 u/L | LIPASE [3]: 9 u/L | PHOSPHORUS [3]: 12.47 mg/dL | POTASSIUM [3]: 6.99 MEQ/L | SODIUM [3]: 143.93 MEQ/L | TOTAL BILIRUBIN [3]: 0.17 mg/dL | TOTAL PROTEIN [3]: 5.8 G/DL | URIC ACID [3]: 1.77 mg/dL | ABSOLUTE BASOPHIL [4]: 0 CELLS/uL | ABSOLUTE EOSINOPHIL [4]: 0 CELLS/uL | ABSOLUTE LYMPHOCYTE [4]: 16690.33 CELLS/uL | ABSOLUTE MONOCYTE [4]: 278.67 CELLS/uL | ABSOLUTE SEGMENTED NEUTROPHIL [4]: 997.67 CELLS/uL | BASOPHIL [4]: 0% | EOSINOPHIL [4]: 0% | ERYTHROCYTE COUNT [4]: 5.66 x10E6/uL | HEMATOCRIT [4]: 34.53% | HEMOGLOBIN [4]: 14.03 G/DL | LEUKOCYTE COUNT [4]: 17.97 x10E3/uL | LYMPHOCYTE [4]: 93% | MEAN CORPUSCULAR HEMOGLOBIN [4]: 24.87 pg | MEAN CORPUSCULAR HEMOGLOBIN CONCENTRATION [4]: 40.63 G/DL | MEAN CORPUSCULAR VOLUME [4]: 61.17 fL | MONOCYTE [4]: 1.33% | NEUTROPHIL [4]: 5.67% | NUCLEATED RED BLOOD CELLS [4]: 0.67 /100WBC | PLATELET COUNT [4]: 1272 x10E3/uL | ALANINE AMINOTRANSFERASE [4]: 53.33 u/L | ALBUMIN [4]: 4.1 G/DL | ALKALINE PHOSPHATASE [4]: 315 u/L | ASPARTATE AMINOTRANSFERASE [4]: 72.33 u/L | BLOOD UREA NITROGEN [4]: 18.33 mg/dL | CARBON DIOXIDE [4]: 27.33 mmol/L | CHLORIDE [4]: 100.33 MEQ/L | CHOLESTEROL [4]: 84 mg/dL | CREATINE PHOSPHOKINASE [4]: 186.33 u/L | CREATININE [4]: 0.19 mg/dL | GLUCOSE [4]: 146 mg/dL | LACTATE DEHYDROGENASE [4]: 126.33 u/L | LIPASE [4]: 10 u/L | PHOSPHORUS [4]: 12.8 mg/dL | POTASSIUM [4]: 6.96 MEQ/L | SODIUM [4]: 145.2 MEQ/L | TOTAL BILIRUBIN [4]: 0.2 mg/dL | TOTAL PROTEIN [4]: 5.8 G/DL | URIC ACID [4]: 1.43 mg/dL
